Where “and” joins values, the source holds several entries; their conditions need not be identical. Equal values may be shown once. Results filed as inconclusive are left out.

The test concerns BDF1 mice, Friend leukemia sc, tumor weight T/C. Put plainly: NCI In Vivo Anticancer Drug Screen. Data for tumor model Friend Virus Leukemia (Solid) (subcutaneous) in B6D2F1 (BDF1) mice. The note with it: endpoint: mean tumor weight, higher = larger tumour. Here is the method:
The antitumor activity of compounds was measured in mice bearing transplantable tumors. Survival or tumor size were measured and the results are expressed as the measurement made in the treated group (T) divided by the measurement made in the vehicle treated control group (C). The tumor model used in this assay is Friend Virus Leukemia (Solid) (subcutaneous) in B6D2F1 (BDF1) mice

The mark [1] stands for this setting: dose: 200.0 mg/kg/injection, schedule: Q01DX011 (sc), vehicle: steriod suspending solution.
The mark [2] stands for this setting: dose: 250.0 mg/kg/injection, schedule: Q01DX011 (ip), vehicle: carboxymethylcellulose (CMC).
Where [3] appears, read: dose: 1.0 mg/kg/injection, schedule: Q01DX011 (sc), vehicle: steriod suspending solution.
[4] abbreviates: dose: 2.0 mg/kg/injection, schedule: Q01DX011 (ip), vehicle: carboxymethylcellulose (CMC).
Where [5] appears, read: dose: 4.0 mg/kg/injection, schedule: Q01DX011 (ip), vehicle: carboxymethylcellulose (CMC).
Setting [6] is: dose: 25.0 mg/kg/injection, schedule: Q01DX011 (ip), vehicle: carboxymethylcellulose (CMC).
The mark [7] stands for this setting: dose: 50.0 mg/kg/injection, schedule: Q01DX011 (ip), vehicle: carboxymethylcellulose (CMC).
The mark [8] stands for this setting: dose: 100.0 mg/kg/injection, schedule: Q01DX011 (ip), vehicle: carboxymethylcellulose (CMC).
Where [9] appears, read: dose: 125.0 mg/kg/injection, schedule: Q01DX011 (ip), vehicle: carboxymethylcellulose (CMC).

Regarding `COc1ccc(-c2coc3cc(OC)c(OC)c(OC)c3c2=O)cc1`, the T/C was 299 % of control (dose: 50.0 mg/kg/injection, schedule: Q01DX011 (sc), vehicle: steriod suspending solution); 250 % of control (dose: 100.0 mg/kg/injection, schedule: Q01DX011 (sc), vehicle: steriod suspending solution); 275 % of control under setting [1].

For the compound `NC(Cc1cccs1)C(=O)O` (centres undefined), under setting [2], the T/C was 112 % of control.

`C[C@]12CC[C@@H]3c4ccc(OC(=O)c5ccccc5)cc4CC[C@H]3[C@@H]1CC[C@@H]2O`: the T/C (dose: 77.25 mg/kg/injection, schedule: Q01DX011 (sc), vehicle: steriod suspending solution) was 102 % of control and the T/C (dose: 154.5 mg/kg/injection, schedule: Q01DX011 (sc), vehicle: steriod suspending solution) is 112 % of control.

As for `C[C@H]1C[C@H]2[C@@H]3CC[C@](O)(C(=O)CO)[C@@]3(C)C[C@H](O)[C@]2(F)[C@@]2(C)C=CC(=O)C=C12`, the T/C was 61 % of control and 63 % of control (dose: 0.5 mg/kg/injection, schedule: Q01DX011 (sc), vehicle: steriod suspending solution); 76 % of control and 91 % of control under setting [3]; 60 % of control and 74 % of control (dose: 3.0 mg/kg/injection, schedule: Q01DX011 (sc), vehicle: steriod suspending solution); 31 % of control (dose: 6.0 mg/kg/injection, schedule: Q01DX011 (sc), vehicle: steriod suspending solution); 47 % of control (dose: 7.0 mg/kg/injection, schedule: Q01DX011 (sc), vehicle: steriod suspending solution); 28 % of control (dose: 15.0 mg/kg/injection, schedule: Q01DX011 (sc), vehicle: steriod suspending solution). Besides, the T/C by setting is: (dose: 30.0 mg/kg/injection, schedule: Q01DX011 (sc), vehicle: steriod suspending solution) 17 % of control; (dose: 60.0 mg/kg/injection, schedule: Q01DX011 (sc), vehicle: steriod suspending solution) 10 % of control; (dose: 120.0 mg/kg/injection, schedule: Q01DX011 (sc), vehicle: steriod suspending solution) 5 % of control.

For the compound `CCC[CH2][Sn]([CH2]CCC)([CH2]CCC)[O]C(=O)CC[S][Sn]([CH2]CCC)([CH2]CCC)[CH2]CCC`, the T/C by setting is: under setting [4], 108 % of control; under setting [5], 82 % of control.

As to `O=[n+]1c2c(n([O-])c3ccccc31)-c1cccc3cccc-2c13`, the T/C is, setting by setting: under setting [6], 87 % of control; under setting [7], 55 % of control; under setting [8], 43 % of control.

`Oc1ccc2ccccc2c1N=Nc1ccccc1`: the T/C is, setting by setting: under setting [6], 90 % of control; under setting [7], 56 % of control; under setting [8], 41 % of control and 47 % of control; (dose: 200.0 mg/kg/injection, schedule: Q01DX011 (ip), vehicle: carboxymethylcellulose (CMC)) 65 % of control and 47 % of control.

Turning to `O=c1[nH]c(=O)n(C2CC(O)C(CO)O2)cc1Br` (centres undefined), the T/C reads like this: under setting [9], 72 % of control; under setting [2], 52 % of control.

For the compound `[N-]=[N+]=[N-]`, the T/C by setting is: (dose: 1.06 mg/kg/injection, schedule: Q01DX011 (ip), vehicle: carboxymethylcellulose (CMC)) 89 % of control; (dose: 2.12 mg/kg/injection, schedule: Q01DX011 (ip), vehicle: carboxymethylcellulose (CMC)) 108 % of control; (dose: 4.25 mg/kg/injection, schedule: Q01DX011 (ip), vehicle: carboxymethylcellulose (CMC)) 114 % of control; (dose: 8.5 mg/kg/injection, schedule: Q01DX011 (ip), vehicle: carboxymethylcellulose (CMC)) 117 % of control.

Regarding `NNc1ncnc2nc[nH]c12`, the T/C (dose: 25.0 mg/kg/injection, schedule: Q01DX011 (ip), vehicle: saline) was 118 % of control and the T/C (dose: 50.0 mg/kg/injection, schedule: Q01DX011 (ip), vehicle: saline) was 61 % of control.

For the compound `O=c1cnn(C2OC(CO)C(O)C2O)c(=O)[nH]1` (centres undefined), the T/C was 160 % of control (dose: 62.5 mg/kg/injection, schedule: Q01DX011 (ip), vehicle: saline); 170 % of control (dose: 125.0 mg/kg/injection, schedule: Q01DX011 (ip), vehicle: saline); 105 % of control (dose: 500.0 mg/kg/injection, schedule: Q01DX011 (ip), vehicle: saline).

Regarding `CCCSc1ncnc2nc[nH]c12`, the T/C (dose: 18.75 mg/kg/injection, schedule: Q01DX011 (ip), vehicle: carboxymethylcellulose (CMC)) is 64 % of control; the T/C (dose: 37.5 mg/kg/injection, schedule: Q01DX011 (ip), vehicle: carboxymethylcellulose (CMC)) is 64 % of control; the T/C (dose: 75.0 mg/kg/injection, schedule: Q01DX011 (ip), vehicle: carboxymethylcellulose (CMC)) is 45 % of control; the T/C (dose: 150.0 mg/kg/injection, schedule: Q01DX011 (ip), vehicle: carboxymethylcellulose (CMC)) is 8 % of control.

In the case of `O=c1[nH]cnc2n[nH]nc12`, the T/C is 71 % of control (dose: 62.5 mg/kg/injection, schedule: Q01DX011 (ip), vehicle: carboxymethylcellulose (CMC)); 55 % of control under setting [9]; 31 % of control and 36 % of control under setting [2]; 11 % of control and 17 % of control (dose: 500.0 mg/kg/injection, schedule: Q01DX011 (ip), vehicle: carboxymethylcellulose (CMC)).

With `CCC(=O)O[C@H]1CC[C@H]2[C@@H]3CCC4=CC(=O)CC[C@]4(C)[C@H]3CC[C@]12C`, the T/C was 84 % of control under setting [3]; 104 % of control (dose: 5.0 mg/kg/injection, schedule: Q01DX011 (sc), vehicle: steriod suspending solution); 96 % of control (dose: 10.0 mg/kg/injection, schedule: Q01DX011 (sc), vehicle: steriod suspending solution); 81 % of control (dose: 20.0 mg/kg/injection, schedule: Q01DX011 (sc), vehicle: steriod suspending solution); 89 % of control (dose: 40.0 mg/kg/injection, schedule: Q01DX011 (sc), vehicle: steriod suspending solution); 76 % of control (dose: 80.0 mg/kg/injection, schedule: Q01DX011 (sc), vehicle: steriod suspending solution). In addition, the T/C by setting is: (dose: 125.0 mg/kg/injection, schedule: Q01DX011 (sc), vehicle: steriod suspending solution) 199 % of control; under setting [1], 158 % of control; (dose: 250.0 mg/kg/injection, schedule: Q01DX011 (sc), vehicle: steriod suspending solution) 207 % of control; (dose: 300.0 mg/kg/injection, schedule: Q01DX011 (sc), vehicle: steriod suspending solution) 94 % of control; (dose: 400.0 mg/kg/injection, schedule: Q01DX011 (sc), vehicle: steriod suspending solution) 185 % of control and 201 % of control; (dose: 500.0 mg/kg/injection, schedule: Q01DX011 (sc), vehicle: steriod suspending solution) 171 % of control and 191 % of control and 257 % of control.

For `CC(=O)Nc1ccc(NC(=O)c2ccc([As](O)O)cc2)cc1`, the T/C (dose: 30.0 mg/kg/injection, schedule: Q01DX011 (ip), vehicle: carboxymethylcellulose (CMC)) is 111 % of control; the T/C (dose: 60.0 mg/kg/injection, schedule: Q01DX011 (ip), vehicle: carboxymethylcellulose (CMC)) was 109 % of control; the T/C (dose: 120.0 mg/kg/injection, schedule: Q01DX011 (ip), vehicle: carboxymethylcellulose (CMC)) is 101 % of control.

Take `CC(CCC(C)OS(C)(=O)=O)OS(C)(=O)=O` (centres undefined): the T/C (dose: 0.5 mg/kg/injection, schedule: Q01DX011 (ip), vehicle: carboxymethylcellulose (CMC)) is 82 % of control; the T/C (dose: 1.0 mg/kg/injection, schedule: Q01DX011 (ip), vehicle: carboxymethylcellulose (CMC)) is 91 % of control; the T/C under setting [4] was 103 % of control; the T/C under setting [5] is 105 % of control; the T/C (dose: 6.0 mg/kg/injection, schedule: Q01DX011 (ip), vehicle: carboxymethylcellulose (CMC)) is 98 % of control; the T/C (dose: 6.25 mg/kg/injection, schedule: Q01DX011 (ip), vehicle: carboxymethylcellulose (CMC)) is 56 % of control.

For `CNS(=O)(=O)c1ncnc2nc[nH]c12`, the T/C is 94 % of control (dose: 20.0 mg/kg/injection, schedule: Q01DX011 (ip), vehicle: carboxymethylcellulose (CMC)); 86 % of control (dose: 26.0 mg/kg/injection, schedule: Q01DX011 (ip), vehicle: carboxymethylcellulose (CMC)); 96 % of control (dose: 35.0 mg/kg/injection, schedule: Q01DX011 (ip), vehicle: carboxymethylcellulose (CMC)); 43 % of control (dose: 70.62 mg/kg/injection, schedule: Q01DX011 (ip), vehicle: carboxymethylcellulose (CMC)); 49 % of control (dose: 107.0 mg/kg/injection, schedule: Q01DX011 (ip), vehicle: carboxymethylcellulose (CMC)).

For the origin of these results see PubChem BioAssay AID228 (DTP/NCI, 2004).
